Test results from PMC10223877, “Impacts of PEGylation and Glycosylation on the Biological Properties of Host Defense Peptide IDR1018” (Pharmaceutics, 2023).
In brackets after ≈: the same amount, converted by molar mass. Ends that are not written are not given here. Peptide text beside a SMILES is read from it. * marks the point of attachment. X1 = CC(=O)N[C@H]1C(*)O[C@H](CO)[C@@H](O)[C@@H]1O; X2 = O=C(CCOCCOCCOCCOCCOCCOCCO)*

Assays:
[1] = system: MRSA SAP0017, P. aeruginosa PA14, E. coli ATTC489, A. baumannii 5015; experiment: MIC, summary over the strains tested; type: cell-based; conditions: range over the four strains of Table 2
Experimental: (§1) The MIC was conducted using the liquid broth inhibition assay as previously described. MHB was used as a medium for bacterial growth, and bacteria (either MRSA SAP0017, P. aeruginosa PA14, E. coli ATTC489 or A. baumannii 5015) were suspended at ∼1 × 10^6 CFU mL^−1. The peptide conjugates were incubated with the bacterial cultures at various concentrations for ~18 h prior determination of bacterial growth optical density at 600 nm (OD600). The MIC was defined as the lowest concentration that led to no growth in the wells. All values are modal values of three independent experiments.

E. coli ATTC489 [2] = experiment: MIC, liquid broth inhibition assay; type: cell-based; conditions: planktonic E. coli ATTC489; MHB, ~1 × 10^6 CFU mL^−1, ~18 h, OD600; modal values of three independent experiments
Experimental: as §1

S. aureus MRSA0017 [3] = experiment: MIC, liquid broth inhibition assay; type: cell-based; conditions: planktonic S. aureus MRSA0017; MHB, ~1 × 10^6 CFU mL^−1, ~18 h, OD600; modal values of three independent experiments
Experimental: as §1

A. baumannii 5015 [4] = experiment: MIC, liquid broth inhibition assay; type: cell-based; conditions: planktonic A. baumannii 5015; MHB, ~1 × 10^6 CFU mL^−1, ~18 h, OD600; modal values of three independent experiments
Experimental: as §1

P. aeruginosa PA14 [5] = experiment: MIC, liquid broth inhibition assay; type: cell-based; conditions: planktonic P. aeruginosa PA14; MHB, ~1 × 10^6 CFU mL^−1, ~18 h, OD600; modal values of three independent experiments
Experimental: as §1

P. aeruginosa PA14 [6] = experiment: Biofilm eradication assay (MBEC), preformed biofilms; type: cell-based; conditions: BM2 glucose, viable biofilm cell count, three independent experiments
Text: (§2) A bacterial suspension of 1 × 10^7 CFU mL^−1 was used to establish biofilms prior to treatment with the peptides. Appropriate nutrient media for optimal biofilm formation were used, including TSB supplemented with 1% glucose for MRSA SAP0017, BM2 glucose for P. aeruginosa PA14, and LB media supplemented with 1% glucose for E. coli ATTC489 and A. baumannii 5015. In the crystal violet-based assay, untreated bacterial culture and sterile media were used as positive and negative controls, where the % of biofilm biomass was considered 100 and 0%, respectively. The % of biomass in the treated samples was determined relative to the positive and negative controls. A biofilm eradication assay [17] was also performed, for which the residual viable biofilm cell count (CFU mL^−1) was determined. Experiments were conducted in triplicate, in three independent experiments, and average values were presented with ± standard deviations.

E. coli ATTC489 [7] = experiment: as above; type: cell-based; conditions: LB + 1% glucose, viable biofilm cell count, three independent experiments
Text: as §2

A. baumannii 5015 [8] = experiment: as above; type: cell-based; conditions: preformed A. baumannii 5015 biofilm, LB + 1% glucose; viable biofilm cell count; three independent experiments
Text: as §2

S. aureus MRSA0017 [9] = experiment: as above; type: cell-based; conditions: TSB + 1% glucose, viable biofilm cell count, three independent experiments
Text: as §2

[10] = at 128 µg mL^−1; LDH release, 24 h, 37 °C, RPMI + 10% FBS; 1% Triton X-100 = 100%
Experimental: The cytotoxicity of the conjugates was assessed in vitro against PBMCs as described earlier using the lactate dehydrogenase (LDH)-based assay [35]. Blood samples were collected from healthy donors with ethics approval and PBMCs were isolated following our previously reported protocol [35]. The cells were resuspended in RPMI medium supplemented with 10% FBS and seeded in tissue culture-treated plates at a final density of 1 × 10^5 cells well^−1. Subsequently, the cells were treated with the conjugates or IDR1018 and incubated for 24 h at 37 °C in 5% CO2, to determine the LDH release. Triton X-100 (1% final concentration) was used as a toxic (positive) control.

MCP-1 = experiment: Immunomodulatory assay, ELISA of PBMC supernatant; type: cell-based, human; conditions: PBMCs, peptide 8 μg mL^−1 co-treated with 20 ng mL^−1 P. aeruginosa LPS, 24 h
Experimental: (§3) To evaluate the capacity of the conjugates to modulate the immune system, suspended PBMCs (a final density of 1 × 10^5 cells well^−1) were treated with the conjugates at 8 μg mL^−1 in the presence or absence of 20 ng mL^−1 P. aeruginosa LPS, incubated for 24 h, centrifuged, and then the supernatants were collected to quantifying the levels of monocyte chemoattractant protein 1 (MCP-1), the tumor necrosis factor-alpha (TNFα), and interleukins (IL) IL-1β, IL-10, and the anti-inflammatory IL-1 receptor antagonist (IL-1RA) using specific ELISA assays (ELISA kits, eBioscience, Carlsbad, CA, USA). All experiments were conducted in triplicate in three independent experiments and average values were presented.

human PBMCs = experiment: Immunomodulatory assay, chemokine and cytokine expression overall; type: cell-based
Experimental: as §3

[11] = Aggregation assay (turbidity) in sodium citrate or phosphate; type: physicochemical; conditions: sodium citrate and sodium phosphate, 0.1−1000 mM; OD600 relative to sterile water
Experimental: Solutions of IDR1018 peptide and the conjugates were tested for aggregation in saline (0.9% NaCl), 5% dextrose, and 10% RPMI tissue culture medium at 1 mg mL^−1. The solutions were placed in 96 well plates and sterile water was used as a negative control. The turbidity was determined for each sample as described in earlier reports. Similarly, the conjugates were screened for aggregation in the presence of sodium salts of polyatomic anions (citrate or phosphate) at various strengths (0.1−1000 mM). The % of aggregates was assessed relative to the OD600 of sterile water.

IL-10 = experiment: Immunomodulatory assay, ELISA of PBMC supernatant; type: cell-based, human; conditions: PBMCs, peptide 8 μg mL^−1 co-treated with 20 ng mL^−1 P. aeruginosa LPS, 24 h
Experimental: as §3

[12] = Aggregation with PBMCs in tissue culture, microscopy; type: physicochemical, human; conditions: 32 μg mL^−1, PBMCs in RPMI, 4 h, 37 °C, 5% CO2, microscopy; triplicate in three independent experiments
Experimental: Furthermore, isolated peripheral blood mononuclear cells (PBMCs) seeded in 96-well flat-bottom tissue culture plates (Corning Inc., Corning, NY, USA) at a concentration of 2 × 10^6 in RMPI media were treated with the two conjugates at a final concentration of 32 μg mL^−1, incubated for 4 h at 37 °C in 5% CO2, and visualized on a Nikon Eclipse TS100 microscope. Experiments were performed in triplicate in three independent experiments.

IL-1RA = experiment: Immunomodulatory assay, ELISA of PBMC supernatant; type: cell-based, human; conditions: PBMCs
Experimental: as §3

IL-1β = experiment: Immunomodulatory assay, ELISA of PBMC supernatant; type: cell-based, human; conditions: PBMCs, peptide 8 μg mL^−1 co-treated with 20 ng mL^−1 P. aeruginosa LPS, 24 h
Experimental: as §3

S. aureus MRSA0017 [13] = experiment: Biofilm biomass, crystal violet staining assay; type: cell-based; conditions: at 64 µg mL^−1, relative to untreated samples
Text: as §2

CC[C@H](C)[C@H](NC(=O)[C@H](CCCNC(=N)N)NC(=O)[C@@H](NC(=O)[C@H](C)NC(=O)[C@@H](NC(=O)[C@@H](NC(=O)[C@H](CC(C)C)NC(=O)[C@H](CCCNC(=N)N)NC(=O)[C@@H](NC(=O)CCOCCOCCOCCOCCOCCOCCO)C(C)C)[C@@H](C)CC)C(C)C)C(C)C)C(=O)N[C@@H](Cc1c[nH]c2ccccc12)C(=O)N[C@@H](CCCNC(=N)N)C(=O)N[C@@H](CCCNC(=N)N)C(N)=O [PEG6-IDR1018] (X2-VRLIVAVRIWRR-NH2)
MICs, range based on the strains tested [1]: 32 to 64 µg/mL
MIC (E. coli ATTC489 [2]): 64 µg/mL (≈ 34.2 µM)
MIC (S. aureus MRSA0017 [3]): 32 µg/mL (≈ 17.1 µM)
MIC (A. baumannii 5015 [4]): 64 µg/mL (≈ 34.2 µM)
MIC (P. aeruginosa PA14 [5]): 64 µg/mL (≈ 34.2 µM)
MBEC (minimal biofilm eradication concentration) (P. aeruginosa PA14 [6]): 256 µg/mL
MBEC (minimal biofilm eradication concentration) (E. coli ATTC489 [7]): 128 µg/mL
MBEC (minimal biofilm eradication concentration) (A. baumannii 5015 [8]): 128 µg/mL
MBEC (minimal biofilm eradication concentration) (S. aureus MRSA0017 [9]): 64 µg/mL

VRLIVAVRIWRR-NH2 [IDR1018]
MIC (E. coli ATTC489 [2]): 16 µg/mL
MIC (S. aureus MRSA0017 [3]): 16 µg/mL
MIC (A. baumannii 5015 [4]): 16 µg/mL
MIC (P. aeruginosa PA14 [5]): 16 µg/mL
MBEC (minimal biofilm eradication concentration) (P. aeruginosa PA14 [6]): 16 µg/mL
MBEC (minimal biofilm eradication concentration) (E. coli ATTC489 [7]): 16 µg/mL
MBEC (minimal biofilm eradication concentration) (A. baumannii 5015 [8]): 16 µg/mL
cytotoxicity to PBMCs [10]: up to 20%

CC[C@H](C)[C@H](NC(=O)[C@H](CCCNC(=N)N)NC(=O)[C@@H](NC(=O)[C@H](C)NC(=O)[C@@H](NC(=O)[C@@H](NC(=O)[C@H](CC(C)C)NC(=O)[C@H](CCCNC(=N)N)NC(=O)[C@@H](NC(=O)[C@@H](N)[C@@H](C)OC1O[C@H](CO)[C@@H](O)[C@H](O)[C@H]1NC(C)=O)C(C)C)[C@@H](C)CC)C(C)C)C(C)C)C(=O)N[C@@H](Cc1c[nH]c2ccccc12)C(=O)N[C@@H](CCCNC(=N)N)C(=O)N[C@@H](CCCNC(=N)N)C(N)=O (stereo partly drawn) [Glc-IDR1018] (H-T(X1)VRLIVAVRIWRR-NH2)
MCP1 induction level with LPS stimulation (MCP-1): substantially higher expression values
boost of the level of MCP1 and IL-1RA relative to unmodified IDR1018 (human PBMCs; peptide 8 μg mL^−1, absence of LPS): 2–5 fold
ability to modulate chemokine and cytokine expression (human PBMCs; peptide 8 μg mL^−1, absence of an LPS stimulant): significant increase in the expression of the immune mediators relative to unmodified IDR1018
turbidity in sodium salts of polyatomic anions [11]: no turbidity increase
IL-10 induction level with LPS stimulation (IL-10): substantially higher expression values
MICs, range based on the strains tested [1]: 64 to 128 µg/mL
aggregation when incubated with PBMCs in tissue culture [12]: neither peptide conjugate, PEG6-IDR1018, and Glc-IDR1018 showed any obvious sign of aggregation
MIC (E. coli ATTC489 [2]): 64 µg/mL (≈ 34.8 µM)
MIC (S. aureus MRSA0017 [3]): 64 µg/mL (≈ 34.8 µM)
MIC (A. baumannii 5015 [4]): 64 µg/mL (≈ 34.8 µM)
MIC (P. aeruginosa PA14 [5]): 128 µg/mL (≈ 69.6 µM)
MBEC (minimal biofilm eradication concentration) (P. aeruginosa PA14 [6]): 256 µg/mL
MBEC (minimal biofilm eradication concentration) (E. coli ATTC489 [7]): 128 µg/mL
level of IL-1RA induced (IL-1RA; peptide 8 μg mL^−1, 24 h, absence of LPS, mean of three independent experiments): 0.8 ng/mL
IL-1RA induction level with LPS stimulation (IL-1RA; peptide 8 μg mL^−1 co-treated with 20 ng mL^−1 P. aeruginosa LPS, 24 h): substantially higher expression values
MBEC (minimal biofilm eradication concentration) (A. baumannii 5015 [8]): 256 µg/mL
MBEC (minimal biofilm eradication concentration) (S. aureus MRSA0017 [9]): 64 µg/mL
expression of IL-1β with LPS stimulation (IL-1β): significantly suppressed
biomass reduction (S. aureus MRSA0017 [13]): ≥ 90%
